Row | melting point | SMILES
1 | 92 to 95 °C | CC(C)NCCC(C(N)=O)c1ccccc1-c1ccccc1 (stereo not drawn)
2 | 132 to 135 °C | C[Si](C)(C)C/C=C/[C@@H](Cc1ccccc1)C(=O)N1C(=O)OC[C@H]1Cc1ccccc1
3 | 97 to 98 °C | CCCCCS(=O)(=O)NC(=O)/C(C)=C/c1ccc(OCCOC)cc1Oc1ncc(Cl)cc1Cl
4 | 93 to 95 °C | CCOC(=O)CC1COc2c(OC)ccc(C(=O)Nc3ccccc3)c21 (stereo not drawn)
5 | 157 to 160 °C | CNC(=NS(=O)(=O)c1ccc(C(F)(F)F)cc1)N1CC(c2ccccc2)C(c2ccc(Cl)cc2)=N1 (single isomer, unassigned; (-))
6 | 305 to 307 °C | Cc1cccc2c(=O)cc(C(=O)Nc3ccc(CC4SC(=O)NC4=O)cc3)oc12 (stereo not drawn)
7 | 87 to 88 °C | COc1cc(C=CC(=O)c2ccccc2)ccc1O
8 | 108 to 112 °C | CCc1nc2c(C)cc(C)cc2n1-c1ccc(CCNC(=O)NS(=O)(=O)c2ccc(C)cc2)cc1
9 | 268 to 269 °C | Nc1cc(-c2c(-c3cccc(Cl)c3)nc3ccc(Cl)nn23)ccn1
10 | 145 °C | CCCCc1ncc(/C=C(\Cc2cccs2)C(=O)O)n1Cc1cc(Cl)c(C(=O)O)cc1Cl
11 | 166 to 168 °C | CCOC(=O)C(C)OCC#Cc1cc(Cl)ccc1NS(=O)(=O)c1ccc2ncsc2c1 (stereo not drawn)
12 | 160 to 163 °C | CCN(CC)CCN(CCN1CCCCC1)c1ccc(-c2nc3cc(Cl)c(Cl)cc3[nH]2)cc1
13 | 195 to 196 °C | Cc1nc(N2CCN(Cc3ccccc3)CC2)ncc1C(N)=O
14 | 218 to 220 °C | CC(c1oc2ccccc2c(=O)c1-c1cccc(F)c1)n1nc(-c2cccc(N(C)C)c2)c2c(N)ncnc21 (stereo not drawn)
15 | 113 to 114 °C | CCCN(Cc1cccc(-c2noc(C)n2)c1)C(=O)Nc1ccc(Br)cc1
16 | 178 to 180 °C | CCCCOCCOc1ccc(-c2ccc3c(c2)C=C(C(=O)Nc2ccc(S(=O)Cc4nncn4CCCC)cc2)CCN3CC(C)C)cc1 (stereo not drawn)
17 | 164 to 166 °C | COCCc1nc2c(N)nc3ccccc3c2n1CCOCCNC(=O)N1CCOCC1
18 | 102 to 104 °C | O=C(Nc1ccc(-n2nc(C3CC3)cc2C2CC2)cc1)Nc1ccc2ncccc2c1
19 | 223 to 227 °C | COC1=Cc2cc(Cl)ccc2C(O)(C2CCN(C)CC2)c2ccsc21 (stereo not drawn)
20 | 94.5 to 96 °C | O=C(NC(C(=O)OCc1ccccc1)C(=O)C1CC1)c1ccc(F)cc1 (stereo not drawn)

The remaining lines, values behind:

Row | SMILES | melting point
21 | C[Si]1(CC(CN)CC(=O)O)CCCCC1 (stereo not drawn) | 140 to 143 °C
22 | CCNC(=O)N1C(=O)C2(CCCCC2)NC12CCCCC2 | 185 to 188 °C
23 | CCC1Cc2ccc([N+](=O)[O-])cc2C=N1 (stereo not drawn) | 61 to 62 °C
24 | CC12CC(N3CCC4(CC3)OCCO4)C(O)CC1CCC1C2CCC2(C)C(O)C(N3CCCCC3)CC12 (stereo not drawn) | 216 to 218 °C
25 | CCCCCCCCCCCC(=O)NCCNCCNCCNC(=O)CCCCCCCCCCC | 110 to 112 °C
26 | CC(=O)N1CCC2(CC1)Cc1cc([N+](=O)[O-])ccc1O2 | 149 to 150 °C
27 | COc1nnc2n1C=Cc1ccccc1C2C (stereo not drawn) | 101 to 102 °C
28 | CCCn1c(=O)c2c(ncn2CC(O)CO)n(CCC)c1=O (stereo not drawn) | 88 to 91 °C
29 | CCS(=O)c1nc2ccc([N+](=O)[O-])cc2s1 (stereo not drawn) | 145 to 149 °C
30 | CC(C)n1c(=O)n(C)c(=O)c2c(S(=O)CCCO)n(C3Cc4ccccc4C3)cc21 (stereo not drawn) | 164 to 165 °C
31 | CCCCCc1c(C(O)CC)nc(C(C)C)c(CO)c1-c1ccc(F)cc1 (stereo not drawn) | 89 to 90 °C
32 | Cc1ccc(Cn2[nH]c(N)cc2=O)cc1 | 149 °C
33 | C=C(CC1(CC(=C)C(=O)OC(C)(C)C)C(=O)N(C)C(=O)N(C)C1=O)C(=O)OC(C)(C)C | 90 to 91 °C
34 | CCc1cccc(CC)c1NCC(=O)NC(=S)NNC | 166 °C
35 | NC(Cc1c[nH]c2cc(Cl)cc(Cl)c12)C(=O)OCCC(=O)OCc1ccccc1 (stereo not drawn) | 151 to 153 °C
36 | C#CCOc1ncc(F)cc1OC | 67 to 69 °C
37 | Cc1ccc2[nH]ncc2c1NCCN | 153 to 155 °C
38 | C#CCOc1cc(C)nc(-c2cccc(CCC)n2)n1 | 92.5 °C

— a melting point compilation (Tetko et al.; mined from patent text by program, amines drawn as free bases though some values may be those of a salt)
